ChEMBL document CHEMBL1201862, “PubChem BioAssay data set” (2004)
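In this assay, cells in 96-well plates receive the compound at five concentrations for 48 hours. Endpoints are linearly interpolated between the surrounding concentrations. The concentration for 50% growth inhibition is given as GI50.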 Calls of active or inactive are those of the source. Cut-off read from the data, not from the text of the source: active = GI50 up to about 1.1 µM and inactive = higher.

Assays:
Assay in all cases: NCI anticancer screen, dose series, 48 h
COLO 205 = test system: COLO 205
A498 = test system: A498
MCF7 = test system: MCF7
MOLT-4 = test system: MOLT-4
SNB-19 = test system: SNB-19
SK-MEL-28 = test system: SK-MEL-28
Malme-3M = test system: Malme-3M
HCT-15 = test system: HCT-15
UO-31 = test system: UO-31
HCT-116 = test system: HCT-116
HCC 2998 = test system: HCC 2998
MDA-MB-231 = test system: MDA-MB-231
OVCAR-5 = test system: OVCAR-5
SF-268 = test system: SF-268
NCI-H460 = test system: NCI-H460
SF-295 = test system: SF-295
OVCAR-4 = test system: OVCAR-4
NCI-H23 = test system: NCI-H23
786-0 = test system: 786-0
DU-145 = test system: DU-145
OVCAR-3 = test system: OVCAR-3
KM12 = test system: KM12
HOP-62 = test system: HOP-62
A549 = test system: A549
IGROV-1 = test system: IGROV-1
SN12C = test system: SN12C
LOX IMVI = test system: LOX IMVI
SW-620 = test system: SW-620
U-251 = test system: U-251
HT-29 = test system: HT-29
K562 = test system: K562
ACHN = test system: ACHN
EKVX = test system: EKVX
UACC-62 = test system: UACC-62
RXF 393 = test system: RXF 393
NCI/ADR-RES = test system: NCI/ADR-RES
MDA-MB-435 = test system: MDA-MB-435
UACC-257 = test system: UACC-257
SK-OV-3 = test system: SK-OV-3
SR = test system: SR
NCI-H226 = test system: NCI-H226
SNB-75 = test system: SNB-75
SK-MEL-5 = test system: SK-MEL-5
TK-10 = test system: TK-10
SF-539 = test system: SF-539
HL-60 = test system: HL-60
MDA-N = test system: MDA-N
CAKI-1 = test system: CAKI-1
BT-549 = test system: BT-549
CCRF-CEM = test system: CCRF-CEM
RPMI-8226 = test system: RPMI-8226
T47D = test system: T47D
OVCAR-8 = test system: OVCAR-8

For CCn1c2ccccc2c2ccc(C3C(C(=O)OC)=C(C)NC(C)=C3C(=O)OC)cc21, the GI50 (COLO 205) was 48.5 µM (inactive), the GI50 (A498) was 19.8 µM (inactive) and the GI50 (MCF7) was 27 µM (inactive). For the same molecule, the GI50 (MOLT-4) was 28.2 µM (inactive), the GI50 (SNB-19) was 55.8 µM (inactive) and the GI50 (SK-MEL-28) was 70.1 µM (inactive). The GI50 (Malme-3M) was 20 µM (inactive), the GI50 (HCT-15) was 46.3 µM and the GI50 (UO-31) was 39 µM (inactive). For the same molecule, the GI50 (HCT-116) was 43.7 µM (inactive), the GI50 (HCC 2998) was 42.5 µM (inactive) and the GI50 (MDA-MB-231) was 15.9 µM (inactive). For the same molecule, the GI50 (OVCAR-5) was > 100 µM (inactive), the GI50 (SF-268) was 73.8 µM (inactive) and the GI50 (NCI-H460) was 35.5 µM (inactive). The GI50 (SF-295) was 31.7 µM (inactive), the GI50 (OVCAR-4) was 51.5 µM (inactive) and the GI50 (NCI-H23) was 56 µM (inactive). For the same molecule, the GI50 (786-0) was 38.2 µM (inactive), the GI50 (DU-145) was > 100 µM (inactive) and the GI50 (OVCAR-3) was 33.3 µM (inactive). For the same molecule, the GI50 (KM12) was 33.7 µM (inactive), the GI50 (HOP-62) was 55.1 µM (inactive) and the GI50 (A549) was 46.6 µM (inactive). For the same molecule, the GI50 (IGROV-1) was > 100 µM (inactive), the GI50 (SN12C) was 45.1 µM (inactive) and the GI50 (LOX IMVI) was 35.8 µM (inactive). For the same molecule, the GI50 (SW-620) was 66.1 µM (inactive), the GI50 (U-251) was 67.8 µM (inactive) and the GI50 (HT-29) was 33.7 µM (inactive). For the same molecule, the GI50 (K562) was 41.7 µM (inactive), the GI50 (ACHN) was 38.8 µM (inactive) and the GI50 (EKVX) was 45.6 µM (inactive). For the same molecule, the GI50 (UACC-62) was 87.9 µM (inactive), the GI50 (RXF 393) was 15.4 µM (inactive) and the GI50 (NCI/ADR-RES) was 38.5 µM (inactive). The GI50 (MDA-MB-435) was 45.6 µM (inactive), the GI50 (UACC-257) was 48.2 µM (inactive) and the GI50 (SK-OV-3) was > 100 µM (inactive). The GI50 (SR) was 42.9 µM (inactive), the GI50 (NCI-H226) was 33 µM (inactive) and the GI50 (SNB-75) was 51.5 µM (inactive). For the same molecule, the GI50 (SK-MEL-5) was 43.6 µM (inactive), the GI50 (TK-10) was 59.2 µM (inactive) and the GI50 (SF-539) was 30.2 µM (inactive). The GI50 (HL-60) was 20.1 µM (inactive), the GI50 (MDA-N) was 37.8 µM (inactive) and the GI50 (CAKI-1) was 31 µM (inactive). The GI50 (BT-549) was 49.3 µM (inactive), the GI50 (CCRF-CEM) was 30.4 µM (inactive) and the GI50 (RPMI-8226) was 21.1 µM (inactive). For the same molecule, the GI50 (T47D) was 63.8 µM (inactive) and the GI50 (OVCAR-8) was 49.3 µM (inactive).
